These results are taken from patent US11319324B2, “Pyrazolo-pyrrolo-pyrimidine-dione derivatives as P2X3 inhibitors” (Bayer Aktiengesellschaft, priority 2017, dated 2022).

Common to all, as to assay type: cell-based
In one test the target is T1, human P2X2/3 receptors (Homo sapiens, UniProt P56373+Q9UBL9).
T1 construct: expressed in transfected cells; host or cells: human astrocytoma 1321N1 (1312N1 [sic])
T1 sequence (P56373 1-397): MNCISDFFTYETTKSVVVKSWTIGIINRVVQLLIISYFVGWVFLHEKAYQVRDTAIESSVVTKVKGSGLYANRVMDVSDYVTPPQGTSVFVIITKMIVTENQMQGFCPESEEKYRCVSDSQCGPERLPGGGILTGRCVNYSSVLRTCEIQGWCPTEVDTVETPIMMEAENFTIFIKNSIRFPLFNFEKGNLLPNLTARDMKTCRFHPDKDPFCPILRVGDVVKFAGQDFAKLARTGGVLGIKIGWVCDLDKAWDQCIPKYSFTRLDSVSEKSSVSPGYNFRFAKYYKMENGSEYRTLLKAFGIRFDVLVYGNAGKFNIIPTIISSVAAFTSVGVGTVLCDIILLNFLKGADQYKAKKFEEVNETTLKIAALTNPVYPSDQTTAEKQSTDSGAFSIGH
T1 sequence (Q9UBL9 1-471): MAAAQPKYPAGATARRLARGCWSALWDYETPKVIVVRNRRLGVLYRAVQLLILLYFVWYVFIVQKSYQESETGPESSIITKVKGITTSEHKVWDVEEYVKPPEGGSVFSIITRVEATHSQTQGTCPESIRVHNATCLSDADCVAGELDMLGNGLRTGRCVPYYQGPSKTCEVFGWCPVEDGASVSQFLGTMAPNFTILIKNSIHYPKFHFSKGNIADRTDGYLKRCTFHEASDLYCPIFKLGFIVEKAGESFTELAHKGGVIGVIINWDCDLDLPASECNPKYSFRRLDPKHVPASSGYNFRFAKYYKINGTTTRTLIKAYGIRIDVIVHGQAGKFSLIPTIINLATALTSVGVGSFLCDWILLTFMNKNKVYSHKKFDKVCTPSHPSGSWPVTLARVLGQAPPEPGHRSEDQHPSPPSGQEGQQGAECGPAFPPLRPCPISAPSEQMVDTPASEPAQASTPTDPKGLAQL
Description: Intracellular calcium measurement, antagonist activity at human P2X2/3 receptors (hP2X23 1321N1), Fluo8. To be noted: for IC50: column 4); 1321N1 cells, human P2X2/3, Fluo8, agonist ATP at EC50; read-out: 4) hP2X2/3 IC50 [nM] (1321N1); for hP2X23/hP2X3* Selectivity (1321N1): ratio of column 4) hP2X2/3 to column 3) hP2X3, 1321N1. Put shortly:
(§1)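 Inhibition of ATP-triggered Ca2+ transients is measured in 1321N1 cells expressing P2X3 homotrimers or P2X2/3 heterotrimers.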
(Calcium assays in cells follow changes in intracellular calcium, usually with a dye or a luminescent sensor.)

Test [1] deals with T2, human P2X3 receptor (Homo sapiens, UniProt P56373).
T2 sequence (P56373 1-397): T1 sequence (P56373 1-397)
As to the kind of experiment: Intracellular calcium measurement to assess antagonist activity at human P2X3 receptors (hP2X3 CHO), photina luminescence. Further details: expressed in transfected cells; host or cells: Chinese hamster ovary (CHO) cells. To be noted: column 2), CHO cells, agonist α,β-methylene-ATP at EC50. Put shortly:
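CHO cells stably expressing human P2X3 and mitochondrial photina, plated the day before at 30 °C, then loaded 3 h at 37 °C in 2 mM Ca-tyrode buffer with 5 μg/ml coelenterazine. Agonist-evoked calcium luminescence read immediately; inhibition seen as signal decrease.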

For test [2], the target named is T2, human P2X3 receptor. Description: Intracellular calcium measurement to assess antagonist activity at human P2X3 receptors (hP2X3 FLIPR). Further details: expressed in transfected cells; host or cells: human astrocytoma 1321N1 (1312N1 [sic]). To be noted: head prints (1321N1); read-out: 1) hP2X3 IC50 [nM] (1321N1). As to the method: 1) Intracellular Calcium Measurement to Assess Antagonist Activity at Human P2X3 Receptors (hP2X3 FLIPR)
A fluorescent imaging plate reader (FLEX/FLIPR station; Molecular Devices) was used to monitor intracellular calcium levels using the calcium-chelating dye Fluo-4 (Molecular Probes). The excitation and emission wavelengths used to monitor fluorescence were 470-495 nm and 515-575 nm, respectively. The human astrocytoma […] cells expressing purinergic receptors P2X3 (human) were plated at a density of 15,000 cells/well in collagen—coated 384-well plates approximately 20 hours before beginning the assay. […] The dye supernatant was removed and replaced with 45 μl probenecid buffer (Hank's balanced salt solution, 20 mM HEPES, 0.5 mM CaCl2, 0.5 mM MgCl2, 0.1% BSA, 5 mM probenecid, 10 mM D-glucose monohydrate, pH=7.4). The test compounds were added in a volume of 5 μl and allowed to incubate for 30 min at 37° C. The final assay DMSO concentration is 1%. […] The fluorescence was measured for an interval of 90 sec at 2 sec intervals and analyzed based on the increase in peak relative fluorescence units (RFU) compared to the basal fluorescence. Peak fluorescence was used to determine the response to agonist obtained at each concentration of test compound by the following equation: Response=100*(RFU(test compound)−RFU(control))/(RFU(DMSO)−RFU(control))
The Examples were tested in triplicates per plate and mean values were plotted in Excel XLFit to determine IC50 values at the human P2X3 and human P2X2/3 receptors, percentage of maximal inhibition and the Hill coefficients.

In test [3] the target is T2, human P2X3 receptor. Description: Intracellular calcium measurement, antagonist activity at human P2X3 receptors (hP2X3 1321N1), Fluo8. Further details: expressed in transfected cells; host or cells: human astrocytoma 1321N1 (1312N1 [sic]). To be noted: column 3); 1321N1 cells, human P2X3, Fluo8, agonist ATP at EC50. Put shortly:
as §1

The structures appear in SMILES notation.

With `Cc1ccc(NC(=O)Cn2c3c(c(=O)n4nc(C(C)(C)C)cc24)CN([C@@H](C)C(C)C)C3=O)nc1` [Example 11], the IC50 on human P2X2/3 receptors was > 20600 nM; on human P2X3 receptor [1] it was 750 nM; on human P2X3 receptor [2], 376 nM; on human P2X3 receptor [3], 657 nM. The “hP2X23/hP2X3* Selectivity (1321N1)” value at human P2X2/3 receptors is >31.
For `CC(C)[C@H](C)N1Cc2c(n(CC(=O)Nc3ccc(Cl)cn3)c3cc(C(C)(C)C)nn3c2=O)C1=O` [Example 12], in that order: 8800 nM, 110 nM, 59 nM, 225 nM and 39.
The matching figures for `CC(C)(C)c1cc2n(CC(=O)Nc3ccc(F)cn3)c3c(c(=O)n2n1)CN(CC1CC1)C3=O` [Example 13]: 5650 nM, 51 nM, 21 nM, 27 nM and 212.
On to `CC[C@@H](C)N1Cc2c(n(CC(=O)Nc3ccc(F)cn3)c3cc(C(F)(F)F)nn3c2=O)C1=O` [Example 14], for which the IC50 at human P2X2/3 receptors came out at 11500 nM; on human P2X3 receptor [1], 60 nM; at human P2X3 receptor [2], 30 nM; at human P2X3 receptor [3], 59 nM. Besides, the “hP2X23/hP2X3* Selectivity (1321N1)” value on human P2X2/3 receptors is given as 194.
With `CC[C@@H](C)N1Cc2c(n(CC(=O)Nc3ccc(Cl)cn3)c3cc(C(F)(F)F)nn3c2=O)C1=O` [Example 15], the IC50 on human P2X2/3 receptors is 4650 nM; at human P2X3 receptor [1] it was 49 nM; on human P2X3 receptor [2], 21 nM; on human P2X3 receptor [3], 53 nM. At human P2X2/3 receptors, the “hP2X23/hP2X3* Selectivity (1321N1)” value was found to be 88.
For `CC[C@@H](C)N1Cc2c(n(CC(=O)Nc3ccc(C)cn3)c3cc(C(F)(F)F)nn3c2=O)C1=O` [Example 16], in that order: > 100000 nM, 320 nM, 100 nM, > 16600 nM and >6.
The matching figures for `CC(C)(C)c1cc2n(CC(=O)Nc3ccc(F)cn3)c3c(c(=O)n2n1)CN(C1CCC1)C3=O` [Example 17]: > 18100 nM, 72 nM, 31 nM, 53 nM and >345.
In the case of `CC(C)(C)c1cc2n(CC(=O)Nc3ccc(Cl)cn3)c3c(c(=O)n2n1)CN(C1CCC1)C3=O` [Example 18], the IC50 at human P2X2/3 receptors turned out to be 2500 nM; at human P2X3 receptor [1], 106 nM; at human P2X3 receptor [2], 69 nM; at human P2X3 receptor [3], 124 nM. Moreover, the “hP2X23/hP2X3* Selectivity (1321N1)” value at human P2X2/3 receptors was 20.
In the case of `Cc1ccc(NC(=O)Cn2c3c(c(=O)n4nc(C(C)(C)C)cc24)CN(C2CCC2)C3=O)nc1` [Example 19], the IC50 is 8050 nM at human P2X2/3 receptors, 430 nM on human P2X3 receptor [1], 379 nM at human P2X3 receptor [2] and 740 nM on human P2X3 receptor [3]. The “hP2X23/hP2X3* Selectivity (1321N1)” value at human P2X2/3 receptors stood at 11.
For `CC[C@H](C)N1Cc2c(n(CC(=O)Nc3ccc(F)cn3)c3cc(C(F)(F)F)nn3c2=O)C1=O` [Example 20], in that order: > 22000 nM, 375 nM, 312 nM, 537 nM and >41.
Take `CC[C@H](C)N1Cc2c(n(CC(=O)Nc3ccc(C)cn3)c3cc(C(F)(F)F)nn3c2=O)C1=O` [Example 21]: the IC50 at human P2X2/3 receptors was 12400 nM; on human P2X3 receptor [1] it was 180 nM; on human P2X3 receptor [2], 164 nM; on human P2X3 receptor [3] it was 233 nM. Besides, on human P2X2/3 receptors, the “hP2X23/hP2X3* Selectivity (1321N1)” value came out at 53.
With `CC[C@H](C)N1Cc2c(n(CC(=O)Nc3ccc(Cl)cn3)c3cc(C(F)(F)F)nn3c2=O)C1=O` [Example 22], the IC50 at human P2X2/3 receptors came out at 2850 nM; at human P2X3 receptor [1] it was 81 nM; at human P2X3 receptor [2], 56 nM; at human P2X3 receptor [3], 82 nM. For the same compound, the “hP2X23/hP2X3* Selectivity (1321N1)” value at human P2X2/3 receptors is on record as 35.
For `Cc1cc2n(CC(=O)Nc3ccc(F)cn3)c3c(c(=O)n2n1)CN(C(C)C)C3=O` [Example 23], the IC50 at human P2X2/3 receptors was > 20600 nM; at human P2X3 receptor [1] it was 64 nM; on human P2X3 receptor [2], 80 nM; at human P2X3 receptor [3], 153 nM. For the same compound, the “hP2X23/hP2X3* Selectivity (1321N1)” value at human P2X2/3 receptors is on record as >11134.
The matching figures for `CCc1cc2n(CC(=O)Nc3ccc(F)cn3)c3c(c(=O)n2n1)CN(C(C)C)C3=O` [Example 24]: 10000 nM, 60 nM, 35 nM, 76 nM and 132.
For `COCC(C)N1Cc2c(n(CC(=O)Nc3ccc(F)cn3)c3cc(C(C)(C)C)nn3c2=O)C1=O` (stereo not shown) [Example 25], in that order: 7150 nM, 23 nM, 10 nM, 11 nM and 624.
Regarding `CC(C)(C)c1cc2n(CC(=O)Nc3ccc(F)cn3)c3c(c(=O)n2n1)CN(C1CCCC1)C3=O` [Example 26], the IC50 at human P2X2/3 receptors stood at 2450 nM; at human P2X3 receptor [1], 20 nM; on human P2X3 receptor [2] it was 22 nM; on human P2X3 receptor [3], 46 nM. For the same compound, the “hP2X23/hP2X3* Selectivity (1321N1)” value at human P2X2/3 receptors is given as 54.
Take `CC(C)(C)c1cc2n(CC(=O)Nc3ccc(F)cn3)c3c(c(=O)n2n1)CN(C1COC1)C3=O` [Example 27]: the IC50 at human P2X2/3 receptors was > 21000 nM; at human P2X3 receptor [1], 118 nM; on human P2X3 receptor [2], 95 nM; at human P2X3 receptor [3], 205 nM. For the same compound, the “hP2X23/hP2X3* Selectivity (1321N1)” value at human P2X2/3 receptors is recorded as >102.
In the case of `CC(C)(C)c1cc2n(CC(=O)Nc3ccc(F)cn3)c3c(c(=O)n2n1)CN(CC1CCOCC1)C3=O` [Example 28], the IC50 at human P2X2/3 receptors amounted to 12300 nM; at human P2X3 receptor [1], 305 nM; on human P2X3 receptor [2], 146 nM; at human P2X3 receptor [3], 410 nM. Also, the “hP2X23/hP2X3* Selectivity (1321N1)” value at human P2X2/3 receptors worked out at 30.
Take `CC(C)N1Cc2c(n(CC(=O)Nc3ccc(Cl)cn3)c3cc(C(F)(F)F)nn3c2=O)C1=O` [Example 29]: the IC50 is 4150 nM at human P2X2/3 receptors, 41 nM on human P2X3 receptor [1], 62 nM at human P2X3 receptor [2] and 36 nM on human P2X3 receptor [3]. Besides, at human P2X2/3 receptors, the “hP2X23/hP2X3* Selectivity (1321N1)” value is recorded as 115.
For `Cc1ccc(NC(=O)Cn2c3c(c(=O)n4nc(C(F)(F)F)cc24)CN(C(C)C)C3=O)nc1` [Example 30], in that order: > 21500 nM, 170 nM, 344 nM, 393 nM and >55.
